The source of these data is patent US9309410B2, “Colorant compounds” (Xerox Corporation, priority 2013, dated 2016).

The data set is described as follows: Solubility testing in polyethylene wax (POLYWAX 655). The class given is physicochemical. Conditions: 1 g Solvent Black 3 or 2 g distearyl derivative in 50 g POLYWAX 655; 120° C. oil bath, stirred 3 h, then 1 h without stirring. An excerpt:
Solvent Black 3 (NEPTUN BLACK X60, BASF), of the formula
[drawing 36] molecular weight 456, and the distearyl derivative, a compound as disclosed herein, of the formula
[drawing 37] molecular weight 892, were compared for solubility in polyethylene wax, a predominant component in phase change inks. 1 g of the Solvent Black 3 and 2 g of the distearyl derivative (because its molecular weight was about twice that of Solvent Black 3) were each dissolved in 50 g portions of POLYWAX 655 (Baker Petrolite) in 100 mL beakers equipped with magnetic stir bars. The solutions were placed in 120° C. oil baths and allowed to stir for 3 h, followed by cessation of stirring for 1 h, after which the solutions were poured into aluminum tins.

For `CC1(C)Nc2cccc3c(/N=N/c4ccc(/N=N/c5ccccc5)c5ccccc45)ccc(c23)N1` [Solvent Black 3], the “solubility in polyethylene wax (solids on the bottom of the beaker)” value is listed as “a substantial amount of the Solvent Black 3 appeared on the bottom of its beaker”.

Turning to `CCCCCCCCCCCCCCCCCC1(CCCCCCCCCCCCCCCCC)Nc2cccc3c(/N=N/c4ccc(/N=N/c5ccccc5)c5ccccc45)ccc(c23)N1` [distearyl derivative], the “solubility in polyethylene wax (solids on the bottom of the beaker)” value is on record as “almost no solids appeared on the bottom of the beaker”.
